Test results reported in US11654096B2 (L'OREAL, priority 2017, dated 2023).
Values joined by “and” are separate entries in the source; they are usually repeats but may differ in a detail not shown here. Equal values may be shown once.

What was measured:
Assay type in all cases: cell-based
[1] = tested on: normal human epidermal keratinocytes (NHEKs); assay: Neosynthesis of sulfated GAGs by NHEKs, [35S]-sulfate incorporation; settings: for % Control / Mean (cpm) / [35S]-Sulfate (cpm): sulfated GAGs, NHEKs; for [35S]-Sulfate (cpm): single replicates
Protocol: (§1) The effects of the compounds on the neosynthesis of total and sulfated glycosaminoglycans (GAGs) were studied on two cell models, normal human epidermal keratinocytes (NHEKs) and normal human dermal fibroblasts (NHDFs). The effects of these compounds were evaluated by measuring: • the incorporation of [3H]-glucosamine into the total GAGs neosynthesized by NHEKs and by NHDFs, • the incorporation of [35S]-sulfate into the sulfated GAGs neosynthesized by NHEKs and by NHDFs.
(§2) The keratinocytes were seeded into wells and cultured in culture medium for 24 hours. The medium was then replaced with culture medium containing or not containing (control) the compounds to be tested or the reference (4-nitrophenyl β-D-xylopyranoside at 300 μM), then the cells were incubated for 72 hours with the addition of the [3H]-glucosamine radioactive label (total GAGs) or of the [35S]-sulfate radioactive label (sulfated GAGs) for the final 24 hours of incubation.
(§3) At the end of the incubation, the glycosaminoglycans were extracted from the cells with a chaotropic buffer. The GAGs were then purified by ion exchange chromatography: adsorption of the anionic molecules on Q-Sepharose beads and desorption of the molecules of low or medium anionic nature, with a suitable solution.
(§4) The radioactivity incorporated into the molecules left on the support (GAGs, predominantly) was measured by liquid scintillation.
(§5) All the experimental conditions were performed in n=3.
(§6) The inter-group comparisons were performed using Student's non-paired two-sided t-test. The statistical analyses can be interpreted if n≥5; however, for n<5, the data calculated are provided only by way of indication.

[2] = tested on: normal human dermal fibroblasts (NHDFs); assay: Neosynthesis of total GAGs by NHDFs, [3H]-glucosamine incorporation; settings: for % Control / Mean (cpm) / [3H]-glucosamine (cpm): total GAGs, NHDFs; for [3H]-glucosamine (cpm): single replicates
Protocol: as §1
(§7) The fibroblasts were seeded into wells and cultured in culture medium for 24 hours. The medium was then replaced with culture medium containing or not containing (controt) the compounds to be tested or the reference (TGF-β at 10 ng/ml), then the cells were incubated for 72 hours with the addition of the [35S]-sulfate radioactive label (sulfated GAGs) or of the [3H]-glucosamine radioactive label (total GAGs) for the final 24 hours of incubation.
as §3, §4, §5, §6

[3] = tested on: normal human dermal fibroblasts (NHDFs); assay: Neosynthesis of sulfated GAGs by NHDFs, [35S]-sulfate incorporation; settings: for % Control / Mean (cpm) / [35S]-Sulfate (cpm): sulfated GAGs, NHDFs; for [35S]-Sulfate (cpm): single replicates
Protocol: as §1, §7, §3, §4, §5, §6

[4] = tested on: normal human epidermal keratinocytes (NHEKs); assay: Neosynthesis of total GAGs by NHEKs, [3H]-glucosamine incorporation; settings: for % Control / Mean (cpm) / [3H]-glucosamine (cpm): total GAGs, NHEKs; for [3H]-glucosamine (cpm): single replicates
Protocol: as §1, §2, §3, §4, §5, §6

In the case of `Oc1ccc(/C=C/c2cc(O)cc(O[C@@H]3OC[C@@H](O)[C@H](O)[C@H]3O)c2)cc1` [Compound 1a, 3-hydroxy-5-[(E)-2-(4-hydroxyphenyl)ethenyl]phenyl β-D-xylopyranoside], the “% Control” value ([1]; campaign 1, 10 μM) is reported as 137%, the “Mean (cpm)” value ([1]; campaign 1, 10 μM) is reported as 9319 cpm and the “[35S]-Sulfate (cpm)” value ([1]; campaign 1, 10 μM) is reported as 9304 cpm and 9522 cpm and 9131 cpm. For the same molecule, the “% Control” value ([1]; campaign 1, 100 μM) was 839%, the “Mean (cpm)” value ([1]; campaign 1, 100 μM) was 56923 cpm and the “[35S]-Sulfate (cpm)” value ([1]; campaign 1, 100 μM) was 53801 cpm and 56728 cpm and 60239 cpm. The “% Control” value ([1]; campaign 2, 10 μM) was 217%, the “Mean (cpm)” value ([1]; campaign 2, 10 μM) was 11501 cpm and the “[35S]-Sulfate (cpm)” value ([1]; campaign 2, 10 μM) was 10206 cpm and 12532 cpm and 11765 cpm. The “% Control” value ([1]; campaign 2, 100 μM) was 973%, the “Mean (cpm)” value ([1]; campaign 2, 100 μM) was 51673 cpm and the “[35S]-Sulfate (cpm)” value ([1]; campaign 2, 100 μM) was 46568 cpm and 54125 cpm and 54327 cpm. The “% Control” value ([2]; campaign 2, 10 μM) was 108%, the “Mean (cpm)” value ([2]; campaign 2, 10 μM) was 1684 cpm and the “[3H]-glucosamine (cpm)” value ([2]; campaign 2, 10 μM) was 1622 cpm and 1750 cpm and 1680 cpm. The “% Control” value ([2]; campaign 2, 100 μM) was 90%, the “Mean (cpm)” value ([2]; campaign 2, 100 μM) was 1408 cpm and the “[3H]-glucosamine (cpm)” value ([2]; campaign 2, 100 μM) was 1422 cpm and 1331 cpm and 1470 cpm. The “% Control” value ([3]; campaign 1, 10 μM) was 211%, the “Mean (cpm)” value ([3]; campaign 1, 10 μM) was 3472 cpm and the “[35S]-Sulfate (cpm)” value ([3]; campaign 1, 10 μM) was 3286 cpm and 3573 cpm and 3557 cpm. For the same molecule, the “% Control” value ([3]; campaign 1, 100 μM) was 537%, the “Mean (cpm)” value ([3]; campaign 1, 100 μM) was 8844 cpm and the “[35S]-Sulfate (cpm)” value ([3]; campaign 1, 100 μM) was 8753 cpm and 8534 cpm and 9244 cpm. The “% Control” value ([3]; campaign 2, 10 μM) was 221%, the “Mean (cpm)” value ([3]; campaign 2, 10 μM) was 1254 cpm and the “[35S]-Sulfate (cpm)” value ([3]; campaign 2, 10 μM) was 1274 cpm and 1307 cpm and 1180 cpm. The “% Control” value ([3]; campaign 2, 100 μM) was 411%, the “Mean (cpm)” value ([3]; campaign 2, 100 μM) was 2328 cpm and the “[35S]-Sulfate (cpm)” value ([3]; campaign 2, 100 μM) was 2237 cpm and 2369 cpm and 2379 cpm. The “% Control” value ([4]; campaign 1, 10 μM) was 117%, the “Mean (cpm)” value ([4]; campaign 1, 10 μM) was 15165 cpm and the “[3H]-glucosamine (cpm)” value ([4]; campaign 1, 10 μM) was 14440 cpm and 15184 cpm and 15871 cpm. The “% Control” value ([4]; campaign 1, 100 μM) was 235%, the “Mean (cpm)” value ([4]; campaign 1, 100 μM) was 30380 cpm and the “[3H]-glucosamine (cpm)” value ([4]; campaign 1, 100 μM) was 30079 cpm and 29149 cpm and 31911 cpm. The “% Control” value ([4]; campaign 2, 10 μM) was 134%, the “Mean (cpm)” value ([4]; campaign 2, 10 μM) was 11405 cpm and the “[3H]-glucosamine (cpm)” value ([4]; campaign 2, 10 μM) was 10145 cpm and 11857 cpm and 12213 cpm. For the same molecule, the “% Control” value ([4]; campaign 2, 100 μM) was 199%, the “Mean (cpm)” value ([4]; campaign 2, 100 μM) was 16980 cpm and the “[3H]-glucosamine (cpm)” value ([4]; campaign 2, 100 μM) was 16745 cpm and 16574 cpm and 17621 cpm.

“TGF-β: reference for the fibroblast assays, at 10 ng/ml” was tested, and the “% Control” value ([2]; campaign 2, 10 ng/ml) was 331%, the “Mean (cpm)” value ([2]; campaign 2, 10 ng/ml) was 5167 cpm and the “[3H]-glucosamine (cpm)” value ([2]; campaign 2, 10 ng/ml) was 5999 cpm and 4173 cpm and 5328 cpm. The “% Control” value ([3]; campaign 1, 10 ng/ml) was 208%, the “Mean (cpm)” value ([3]; campaign 1, 10 ng/ml) was 3433 cpm and the “[35S]-Sulfate (cpm)” value ([3]; campaign 1, 10 ng/ml) was 3397 cpm and 3492 cpm and 3411 cpm. For the same molecule, the “% Control” value ([3]; campaign 2, 10 ng/ml) was 257%, the “Mean (cpm)” value ([3]; campaign 2, 10 ng/ml) was 1452 cpm and the “[35S]-Sulfate (cpm)” value ([3]; campaign 2, 10 ng/ml) was 1471 cpm and 1482 cpm and 1403 cpm.

With `Oc1ccc(C=Cc2cc(O)cc(O)c2)cc1` [Resveratrol] the “% Control” value ([1]; campaign 1, 10 μM) was 77%, the “Mean (cpm)” value ([1]; campaign 1, 10 μM) was 5254 cpm and the “[35S]-Sulfate (cpm)” value ([1]; campaign 1, 10 μM) was 5238 cpm and 5506 cpm and 5018 cpm. The “% Control” value ([1]; campaign 1, 100 μM) was 27%, the “Mean (cpm)” value ([1]; campaign 1, 100 μM) was 1802 cpm and the “[35S]-Sulfate (cpm)” value ([1]; campaign 1, 100 μM) was 1836 cpm and 1725 cpm and 1845 cpm. For the same molecule, the “Mean (cpm)” value ([1]; campaign 2, 1 μM) was 6530 cpm, the “[35S]-Sulfate (cpm)” value ([1]; campaign 2, 1 μM) was 6885 cpm and 6817 cpm and 5888 cpm and the “% Control” value ([1]; campaign 2, 10 μM) was 94%. For the same molecule, the “Mean (cpm)” value ([1]; campaign 2, 10 μM) was 4973 cpm, the “[35S]-Sulfate (cpm)” value ([1]; campaign 2, 10 μM) was 5137 cpm and 4981 cpm and 4802 cpm and the “effect on the neosynthesis of the sulfated GAGs by the NHEKs (in words)” value ([1]; tested at 10 and 100 μM) was “inhibited, in a concentration-dependent manner”. The “effect on the neosynthesis of the total GAGs by the NHDFs (in words)” value ([2]; tested at 10 and 100 μM) was “overall inhibited”, the “% Control” value ([2]; campaign 2, 10 μM) was 98% and the “Mean (cpm)” value ([2]; campaign 2, 10 μM) was 1534 cpm. The “[3H]-glucosamine (cpm)” value ([2]; campaign 2, 10 μM) was 1439 cpm and 1533 cpm and 1630 cpm, the “% Control” value ([2]; campaign 2, 100 μM) was 86% and the “Mean (cpm)” value ([2]; campaign 2, 100 μM) was 1339 cpm. The “[3H]-glucosamine (cpm)” value ([2]; campaign 2, 100 μM) was 1253 cpm and 1360 cpm and 1404 cpm, the “% Control” value ([3]; campaign 1, 10 μM) was 93% and the “Mean (cpm)” value ([3]; campaign 1, 10 μM) was 1527 cpm. For the same molecule, the “[35S]-Sulfate (cpm)” value ([3]; campaign 1, 10 μM) was 1506 cpm and 1556 cpm and 1519 cpm, the “% Control” value ([3]; campaign 1, 100 μM) was 62% and the “Mean (cpm)” value ([3]; campaign 1, 100 μM) was 1019 cpm. For the same molecule, the “[35S]-Sulfate (cpm)” value ([3]; campaign 1, 100 μM) was 967 cpm and 1045 cpm and 1046 cpm, the “% Control” value ([3]; campaign 2, 10 μM) was 101% and the “Mean (cpm)” value ([3]; campaign 2, 10 μM) was 571 cpm. For the same molecule, the “[35S]-Sulfate (cpm)” value ([3]; campaign 2, 10 μM) was 613 cpm and 513 cpm and 586 cpm, the “% Control” value ([3]; campaign 2, 100 μM) was 54% and the “Mean (cpm)” value ([3]; campaign 2, 100 μM) was 305 cpm. The “[35S]-Sulfate (cpm)” value ([3]; campaign 2, 100 μM) was 355 cpm and 283 cpm and 276 cpm, the “effect on the neosynthesis of the sulfated GAGs by the NHDFs (in words)” value ([3]; tested at 10 and 100 μM) was “overall inhibited” and the “effect on the neosynthesis of the total GAGs by the NHEKs (in words)” value ([4]; tested at 10 and 100 μM) was “inhibited, in a concentration-dependent manner”. For the same molecule, the “% Control” value ([4]; campaign 1, 10 μM) was 64%, the “Mean (cpm)” value ([4]; campaign 1, 10 μM) was 8328 cpm and the “[3H]-glucosamine (cpm)” value ([4]; campaign 1, 10 μM) was 7566 cpm and 8537 cpm and 8880 cpm. For the same molecule, the “% Control” value ([4]; campaign 1, 100 μM) was 13%, the “Mean (cpm)” value ([4]; campaign 1, 100 μM) was 1743 cpm and the “[3H]-glucosamine (cpm)” value ([4]; campaign 1, 100 μM) was 1509 cpm and 1754 cpm and 1967 cpm. The “% Control” value ([4]; campaign 2, 1 μM) was 113%, the “Mean (cpm)” value ([4]; campaign 2, 1 μM) was 9628 cpm and the “[3H]-glucosamine (cpm)” value ([4]; campaign 2, 1 μM) was 10734 cpm and 10012 cpm and 8137 cpm. For the same molecule, the “% Control” value ([4]; campaign 2, 10 μM) was 86%, the “Mean (cpm)” value ([4]; campaign 2, 10 μM) was 7347 cpm and the “[3H]-glucosamine (cpm)” value ([4]; campaign 2, 10 μM) was 6772 cpm and 7143 cpm and 8126 cpm.
